According to patent US9695155B2, “Herbicidal substituted pyrimidinyloxy benzene compounds” (E. I. DU PONT DE NEMOURS AND COMPANY, priority 2013, dated 2017):

Columns and labels:
johnsongrass = experiment: Test C postemergence; format: in vivo, Sorghum halepense
Method in brief: (§1)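 Visual ratings on a 0–100 scale (100 = complete control) were made versus untreated controls after 13–15 greenhouse days. Chemicals in a surfactant-containing non-phytotoxic solvent were applied either preemergence to seeds in loam–sand soil or postemergence to 1- to 4-leaf plants 2–18 cm tall.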

barnyardgrass [1] = experiment: Test B flooded paddy test; format: in vivo, Echinochloa crus-galli; details: Flood, 250 g ai/ha; 0 to 100 scale where 0 is no effect and 100 is complete control
Method in brief: (§2)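 Compound added straight to paddy water, with pots kept flooded 3 cm above soil, on plants grown to the 2-leaf stage. Visual scoring 0-100 (100 = complete control) against untreated controls after 13 to 15 greenhouse days.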

large (Lg) crabgrass [2] = experiment: Test A postemergence; format: in vivo, Digitaria sanguinalis; details: 0 to 100 scale where 0 is no effect and 100 is complete control
Method in brief: (§3)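 Visual injury scored 0–100 (100 = complete control) against untreated controls about 10 days after treatment in a greenhouse. Test chemicals, formulated with surfactant in non-phytotoxic solvent, were sprayed on soil preemergence or on 2-10 cm, one- to two-leaf plants postemergence.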

morningglory [3] = experiment: Test A preemergence; format: in vivo, Ipomoea spp.
Method in brief: as §3

blackgrass [4] = experiment: Test C preemergence; format: in vivo, Alopecurus myosuroides; details: for Blackgrass plant response rating: preemergence
Method in brief: as §1

Heteranthera limosa = experiment: Test B flooded paddy test; format: in vivo; details: Flood, 250 g ai/ha; 0 to 100 scale where 0 is no effect and 100 is complete control
Method in brief: as §2

wheat, winter = experiment: Test C preemergence; format: in vivo, Triticum aestivum; details: preemergence
Method in brief: as §1

wild oat = experiment: Test C postemergence; format: in vivo, Avena fatua
Method in brief: as §1

barnyardgrass [5] = experiment: Test A preemergence; format: in vivo, Echinochloa crus-galli; details: 0 to 100 scale where 0 is no effect and 100 is complete control
Method in brief: as §3

large (Lg) crabgrass [6] = experiment: Test A preemergence; format: in vivo, Digitaria sanguinalis; details: 0 to 100 scale where 0 is no effect and 100 is complete control
Method in brief: as §3

wheat = experiment: Test A postemergence; format: in vivo, Triticum aestivum; details: 0 to 100 scale where 0 is no effect and 100 is complete control
Method in brief: as §3

Italian ryegrass = experiment: Test C preemergence; format: in vivo, Lolium multiflorum; details: preemergence
Method in brief: as §1

corn = experiment: Test A preemergence; format: in vivo, Zea mays; details: 0 to 100 scale where 0 is no effect and 100 is complete control
Method in brief: as §3

morningglory [7] = experiment: Test A postemergence; format: in vivo, Ipomoea spp.; details: 0 to 100 scale where 0 is no effect and 100 is complete control
Method in brief: as §3

large (Lg) crabgrass [8] = experiment: Test C preemergence; format: in vivo, Digitaria sanguinalis; details: for Crabgrass, Large plant response rating: preemergence
Method in brief: as §1

blackgrass [9] = experiment: Test C postemergence; format: in vivo, Alopecurus myosuroides
Method in brief: as §1

[10] = 16 g ai/ha, postemergence, 0 is no effect, 100 is complete control
[11] = 31 g ai/ha, postemergence, visual rating, scale 0 to 100 (0 no effect, 100 complete control), 13 to 15 days
[12] = 125 g ai/ha, postemergence, visual rating, scale 0 to 100 (0 no effect, 100 complete control)
[13] = Postemergence, 62 g ai/ha, scale 0 to 100 (0 no effect, 100 complete control)
[14] = 16 g ai/ha, scale 0 to 100 (0 no effect, 100 complete control)
[15] = 62 g ai/ha, scale 0 (no effect) to 100 (complete control)
[16] = 125 g ai/ha, scale 0 (no effect) to 100 (complete control)
[17] = Preemergence, 31 g ai/ha, scale 0 to 100, 0 no effect, 100 complete control

FC(F)(F)c1cnn(-c2c(Cl)cccc2Oc2ncc(Cl)cn2)c1 [Compound 167]
Plant response rating (0 to 100), Johnsongrass (johnsongrass; [10]): 5 | Johnsongrass plant response rating (johnsongrass; [11]): 15 | Plant response rating, Johnsongrass (johnsongrass; [12]): 25 | Plant response rating, Johnsongrass (johnsongrass; [13]): 15 | Plant response rating, Barnyardgrass (barnyardgrass [1]): 35 | Crabgrass, Large plant response rating (large (Lg) crabgrass [2]; 125 g ai/ha): 80 | Plant response rating, Crabgrass, Large (large (Lg) crabgrass [2]; 500 g ai/ha): 90 | Morningglory plant response rating (0 to 100 scale) (morningglory [3]; 125 g ai/ha): 90 | Morningglory plant response rating (morningglory [3]; 500 g ai/ha, 0 to 100 scale where 0 is no effect and 100 is complete control): 100 | Blackgrass plant response rating (blackgrass [4]; [14]): 30 | Blackgrass plant response rating (blackgrass [4]; [15]): 90 | Blackgrass plant response rating (blackgrass [4]; [16]): 90 | Plant response rating, Blackgrass (blackgrass [4]; [17]): 30 | Plant response rating, Ducksalad (Heteranthera limosa): 100 | Wheat plant response rating (wheat, winter; [14]): 0 | Wheat plant response rating (wheat, winter; [15]): 5 | Wheat plant response rating (wheat, winter; [16]): 50 | Plant response rating (0 to 100), Oat, Wild (wild oat; [10]): 5 | Oat, Wild plant response rating (wild oat; [11]): 25 | Plant response rating, Oat, Wild (wild oat; [12]): 35 | Plant response rating, Oat, Wild (wild oat; [13]): 35 | Plant response rating, Barnyardgrass (barnyardgrass [5]; 125 g ai/ha): 80 | Barnyardgrass plant response rating (barnyardgrass [5]; 500 g ai/ha): 100 | Plant response rating, Crabgrass, Large (large (Lg) crabgrass [6]; 125 g ai/ha): 100 | Crabgrass, Large plant response rating (large (Lg) crabgrass [6]; 500 g ai/ha): 100 | Wheat plant response rating (wheat; 125 g ai/ha): 20 | Plant response rating, Wheat (wheat; 500 g ai/ha): 60 | Ryegrass, Italian plant response rating (Italian ryegrass; [14]): 5 | Ryegrass, Italian plant response rating (Italian ryegrass; [15]): 80 | Ryegrass, Italian plant response rating (Italian ryegrass; [16]): 90 | Plant response rating, Corn (corn; 125 g ai/ha): 10 | Corn plant response rating (corn; 500 g ai/ha): 40 | Morningglory plant response rating (morningglory [7]; 125 g ai/ha): 80 | Plant response rating, Morningglory (morningglory [7]; 500 g ai/ha): 100 | Crabgrass, Large plant response rating (large (Lg) crabgrass [8]; [14]): 75 | Crabgrass, Large plant response rating (large (Lg) crabgrass [8]; [15]): 100 | Crabgrass, Large plant response rating (large (Lg) crabgrass [8]; [16]): 100 | Plant response rating, Crabgrass, Large (large (Lg) crabgrass [8]; [17]): 98 | Plant response rating (0 to 100), Blackgrass (blackgrass [9]; [10]): 0 | Blackgrass plant response rating (blackgrass [9]; [11]): 5 | Plant response rating, Blackgrass (blackgrass [9]; [12]): 30 | Plant response rating, Blackgrass (blackgrass [9]; [13]): 5
